Values joined by “and” are separate entries in the source; they are usually repeats but may differ in a detail not shown here. Identical values can stand only once.
What was measured:
[1] = system: primary human dermal fibroblasts; test: PDGF-BB stimulated proliferation of dermal fibroblasts (MTT assay); format: cell-based; conditions: MTT 72 hours, FIG. 3
Protocol: Primary human hepatic stellate cells or primary human dermal fibroblasts (HDF), both purchased from Sciencell, were seeded into 96-well plates with complete growth media (Stellate Cell Medium or Fibroblast Cell Medium) for 24 hours, followed by culturing overnight in the culture media free of serum and growth factors, and then the culture media were replaced by fresh medium containing platelet-derived growth factor (PDGF-BB) and the compounds to be tested at various concentrations, and the cells was cultured for another 72 hours. Measurement was performed using a conventional MTT assay kit (Promega). […] The inhibition of cell proliferation by the compounds was determined by comparing the absorbance value of the control group (FIGS. 2, 3).

[2] = system: CCl4-induced liver fibrosis; test: Mouse model of carbon tetrachloride induced liver fibrosis; format: in vivo, BALB/c mice; conditions: 40, 20 and 10 mg/kg intragastrically, from the fourth week to the 7th week
Protocol: BALB/c mice were injected intraperitoneally with 25% CCl4 (4 mL/kg body weight) twice a week, which can cause liver damage and chronic liver fibrosis in 3 weeks. The model animals were administered for 6 weeks continuously, and the non-model control group was administered the solvent control olive oil for the same period. Model animals were randomly divided into groups from the third week. The control group was administered solvent (0.2% sodium methylcellulose) intragastrically from the fourth week, and the sodium chiglitazar at high, medium and low dose groups were administered 40, 20, and 10 mg/kg body weight of the active ingredient sodium chiglitazar intragastrically, respectively (Table 4), until the end of the experiment in the 7th week. […]
The liver tissue sections were stained with Picrosirius Red for morphological observation (FIG. 9), and measured by using a semi-automatic digital image analysis system and the measurement software (OsteoMetrics, Inc.). The pathologist single-blindly tested and hand-drew the entire sections, and then measured the fibrosis area on the entire sections in straight lines. The software automatically calculated the total area of the measurement. […]

[3] = system: monocytic cell line THP-1; test: MCP-1-induced chemotaxis of THP-1 cells (Transwell); format: cell-based, human; conditions: MCP-1 10 ng/mL, compound 3 μmol/L
Source text: In an in vitro model, migration of the monocytic cell line THP-1 induced by a certain concentration of chemokines (such as monocyte chemotactic protein 1, MCP-1), and accordingly such in vivo process was mimicked. Transwell technology, according to the manufacturer's instructions from Corning Inc., is considered that Traswell is a kind of a polycarbonate membrane filter as well as a permeable holder. The polycarbonate membrane divides a culture chamber into upper and lower ones, where the components of the culture medium in the lower chamber can affect the growth, differentiation and movement of the cells in upper chamber. Finally, the cell migration ability can be reflected by staining and counting the cells in the lower chamber.
When cultured to the log phase stage, THP-1 cells were resuspended, adjusted the concentration, and seeded in 24-well plates, followed by being pretreated with the culture media containing the compound to be tested (sodium chiglitazar) or the reference compound GFT505, pioglitazone, or PPARγ single agonist rosiglitazone (all purchased from Selleck) for 24 hours. Transwells were used according to the manufacturer's instructions. The culture media containing chemokine MCP-1 were added to the lower chamber (i.e., the bottom of the 24-well plates), and the cell suspension was added to the upper chamber and cultured for 4 hours. Later, the cells cultured on the “ceiling” surface of the polycarbonate membrane were fixed and stained with crystal violet solution (FIG. 6), and then the number of cells in the lower chamber was counted (Table 3).

THP-1 cells = test: Inflammatory factor gene expression (MCP-1, TNFα) in PMA-activated THP-1 cells (qPCR); format: cell-based, human; conditions: 6 hours, FIG. 5
Protocol: Human acute monocytic leukemia mononuclear cell line (THP-1) cells were activated by a certain concentration of phorbol esters (Phorbol-12-myristate-13-acetate, PMA) and differentiated into macrophages. Through this cell model, the activating effects of sodium chiglitazar and other compounds on the expression of THP-1 related inflammatory factors were detected.
THP-1 cells were seeded into 6-well plates with complete growth media for 24 hours, and then the culture media were replaced by fresh media containing PMA and the compound to be tested (sodium chiglitazar) or the reference compound GFT505 (PPARα/δ dual agonist), and the cells were cultured for 6 hours. The total RNAs of the samples were extracted, and cDNA templates were synthesized by reverse transcription reaction (Transcriptor First Strand cDNA Synthesis Kit, Roche). Thereafter, a conventional PCR amplification kit (FastStart Universal SYBR@ Green Master (ROX), Roche) was used for semi-quantitative gene expression detection on the ABI StepOnePlus real-time quantitative PCR instrument.
The relative expression change of the target genes was obtained by using the internal reference β-actin gene (ACTB) as the standard for normalization, compared with the untreated cell samples, and the relative expression change folds were calculated (FIG. 5).

[4] = system: primary human hepatic stellate cells; test: PDGF-BB stimulated proliferation of hepatic stellate cells (EdU and MTT assay); format: cell-based; conditions: EdU 24 hours, MTT 72 hours, FIGS. 1-2
Protocol: Primary human hepatic stellate cells (HSC) purchased from Sciencell Research Laboratories, Inc. were seeded into 96-well plates with complete growth media (Stellate Cell Medium) for 24 hours, followed by culturing overnight in culture media free of serum and growth factors, and then the culture media were replaced by fresh media containing platelet-derived growth factor (PDGF-BB) and the compounds to be tested (chiglitazar sodium or the reference compound PPARγ/α dual agonist pioglitazone purchased from Selleck Chemicals LLC) at various concentrations, and the cells were cultured for 24 hours. When the cells were treated with the compounds for the last 17 hours, EdU (5-ethynyl-2′-deoxyuridine) was added to the cells. Finally, the culture media were removed and the cells were fixed with formaldehyde. The amount of the EdU incorporated into the DNA of the cells was quantified by fluorescent Click-it EdU assay according to the manufacturer's instructions (Beyotime). […] The inhibition of cell proliferation by the compounds was determined by comparing the EdU incorporated value of the control group (FIG. 1). […]

[5] = 24 hours pretreatment, 4 hours migration

O=C(c1ccc(F)cc1)c1ccccc1N[C@@H](Cc1ccc(OCCn2c3ccccc3c3ccccc32)cc1)C(=O)[O-].[Na+] [sodium chiglitazar]
Inhibition of in vitro proliferation of skin-derived fibroblasts [1]: had inhibitory activity
Inflammatory activity of liver tissues (Metavir score, H&E staining) ([2]; FIGS. 7-8): partially inhibit
Fibrosis degree of liver tissues (fibrosis area %, Picrosirius Red) ([2]; FIGS. 9-10): partially inhibit
Cell concentration in lower chamber, Mean value [3, 5]: 10012 cells/ml
Cell concentration in lower chamber, single replicates [3, 5]: 10630 cells/ml and 9760 cells/ml and 9646 cells/ml
Inhibition of migration activity of THP-1 induced by monocyte chemokine (in words) ([3]; Table 3 and FIG. 6): significantly inhibited
Migration rate ([3]; solvent control + MCP-1 = 100): 33.12%
Inhibition of phorbol esters-mediated activation of monocyte and related gene expression (THP-1 cells): significantly inhibit
Inhibition of in vitro proliferation of liver-derived fibroblasts [4]: had inhibitory activity

— US20210386705A1, “APPLICATION OF CHIGLITAZAR AND RELATED COMPOUNDS THEREOF” (SHENZHEN CHIPSCREEN BIOSCIENCES CO., LTD., priority 2018, published 2021)
